In brackets after ≈: the same amount, converted by molar mass. Read-outs that look alike come from different tables or passages of the source.

Experiment [1] has as its system Staphylococcus epidermidis (12228). In words: MIC, NCCLS broth microdilution. Format: cell-based. (In broth dilution the organism is exposed to a series of concentrations in liquid medium.)
Experiment [2] concerns Enterococcus faecium (51559) (vacomycin resistant). In words: MIC, NCCLS broth microdilution. In kind it is cell-based.
Experiment [3] relates to Esherichia coli (25922). The experiment is described as follows: MIC, NCCLS broth microdilution. In kind it is cell-based, Escherichia coli.
In experiment [4] the test system is Micrococcus luteus (381). The experiment is described as follows: MIC, NCCLS broth microdilution. Format: cell-based.
In experiment [5] the test system is Corynebacterium Group A (49676). The experiment is described as follows: MIC, NCCLS broth microdilution. In kind it is cell-based.
Experiment [6] relates to Enterococcus faecalis (29212). In words: MIC, NCCLS broth microdilution. Format: cell-based.
In experiment [7] the test system is Clostridium perfringens (13124). The experiment is described as follows: microbe, parasite or virus in culture. In kind it is cell-based.
The test system of experiment [8] is Pseudomona aeruginosa (27853). In words: MIC, NCCLS broth microdilution. Format: cell-based.
Experiment [9] concerns Candida parapsilosis (10232). In words: MIC, antifungal assay. Format: cell-based.
The subject of experiment [10] is Streptococcus pyogenes (49339). The experiment is described as follows: MIC, NCCLS broth microdilution. Format: cell-based.
Experiment [11] has as its system Bacillus subtilis (6633). In words: MIC, NCCLS broth microdilution. Format: cell-based.
The subject of experiment [12] is Candida tropicalis (13803). The experiment is described as follows: MIC, antifungal assay. Format: cell-based.
For experiment [13], the system named is Candida albicans (90028). The experiment is described as follows: MIC, antifungal assay. In kind it is cell-based.
Experiment [14] deals with Staphylococcus aureus (29213). The experiment is described as follows: MIC, NCCLS broth microdilution. In kind it is cell-based.
For experiment [15], the system named is Peptostreptococcus asaccharolytics (29743). In words: MIC, NCCLS broth microdilution. In kind it is cell-based. The note with it: anaerobe.
Experiment [16] deals with Streptococcus pneumoniae (49619). The experiment is described as follows: MIC, NCCLS broth microdilution. Format: cell-based.
The test system of experiment [17] is Cryptococcus neoformans (90112). The experiment is described as follows: MIC, antifungal assay. Format: cell-based.
The subject of experiment [18] is Staphylococcus aureus (33591) (methicillin resistant). In words: MIC, NCCLS broth microdilution. In kind it is cell-based.
The subject of experiment [19] is Bacillus cereus (11778). The experiment is described as follows: MIC, NCCLS broth microdilution. Format: cell-based.
Experiment [20] concerns Propionibacterium acnes (33179). In words: MIC, NCCLS broth microdilution. The note with it: anaerobe. Format: cell-based.
Experiment [21] deals with Candida albicans (38247) (Polyene resistant). In words: MIC, antifungal assay. In kind it is cell-based.
Experiment [22] relates to Haemophilus influenzae (49247). The experiment is described as follows: MIC, NCCLS broth microdilution. Format: cell-based.
The test system of experiment [23] is Listeria monocytogenes (19115). The experiment is described as follows: MIC, NCCLS broth microdilution. In kind it is cell-based. The note with it: read-out: MIC.
The test system of experiment [24] is different species of bacteria and fungi. The note with it: in words.
The test system of experiment [25] is dsDNA restriction fragment. In words: dsDNA binding, DNase I footprinting on restriction fragment. The note with it: in words.
Experiment [26] concerns ACTACT. In words: DNase I footprint titration, ACTACT site. Format: binding. The note with it: equilibrium association constant Ka; pH 7.0, 22° C.
Experiment [27] has as its system ATTACT. The experiment is described as follows: DNase I footprint titration, ATTACT site. Format: binding. The note with it: equilibrium association constant Ka; pH 7.0, 22° C.
For experiment [28], the system named is AGTACT. The experiment is described as follows: DNase I footprint titration, AGTACT site. The note with it: equilibrium association constant Ka; pH 7.0, 22° C. In kind it is binding.
Experiment [29] deals with AATACT. In words: DNase I footprint titration, AATACT site. In kind it is binding. The note with it: equilibrium association constant Ka; pH 7.0, 22° C.
The mark [30] stands for this setting: Streptococcus pneumoniae (49619).
The mark [31] stands for this setting: Cryptococcus neoformans (90112).

For the molecule `Cn1cc(NC(=O)c2cc(NC(=O)c3cc(NC=O)cn3C)cn2C)cc1C(=O)NCCC(=N)N` [Distamycin, distamycin, reference compound], the MIC is 64 µg/mL (≈ 133 µM) in experiment [1] (Staphylococcus epidermidis (12228)); 128 µg/mL (≈ 266 µM) in experiment [2] (Enterococcus faecium (51559), vancomycin resistant); over 128 µg/mL in experiment [3] (Escherichia coli (25922)); 32 µg/mL (≈ 66.5 µM) in [4]; 16 µg/mL (≈ 33.2 µM) in experiment [5] (Corynebacterium Group A (49676)); 16 to 32 µg/mL in [6] (Enterococcus faecalis (29212)). The MIC in experiment [7] is 8 µg/mL (≈ 16.6 µM); in experiment [8] (Pseudomona aeruginosa (27853)) it was over 128 µg/mL; in [9] (Candida parapsilosis (10232)), over 128 µg/mL; in experiment [10] (Streptococcus pyogenes (49339), Table Ia: Streptococcus Group A(49339)) it was 32 µg/mL (≈ 66.5 µM); in [11] (Bacillus subtilis (6633)) it was 64 to 128 µg/mL; in experiment [12] (Candida tropicalis (13803)) it was over 128 µg/mL. For the same molecule, the MIC in experiment [13] was over 128 µg/mL; in [14] (Staphylococcus aureus (29213)), 32 µg/mL (≈ 66.5 µM); in experiment [15], 8 µg/mL (≈ 16.6 µM); in [16] (setting [30]) it was 16 µg/mL (≈ 33.2 µM); in experiment [17] (setting [31]), over 128 µg/mL; in experiment [18] (Staphylococcus aureus (33591), methicillin resistant (MRSA)) it was 16 µg/mL (≈ 33.2 µM). The MIC in experiment [19] (Bacillus cereus (11778)) was 8 µg/mL (≈ 16.6 µM); in [20], 16 µg/mL (≈ 33.2 µM); in experiment [21], over 128 µg/mL.

With `Cn1cc(NC(=O)c2cc(NC(=O)CN=C(N)N)cn2C)cc1C(=O)NCCC(=N)N` [Netropsin, netropsin, reference compound], the MIC in experiment [1] (Staphylococcus epidermidis) is 2 to 4 µg/mL (≈ 4.65 to 9.29 µM); in [2] (Enterococcus faecium), 8 µg/mL (≈ 18.6 µM); in experiment [3] (Escherichia coli), 2 µg/mL (≈ 4.65 µM); in experiment [5] (Corynebacterium), 0.5 µg/mL (≈ 1.16 µM); in experiment [6] (Enterococcus faecalis), 2 µg/mL (≈ 4.65 µM); in [8], over 128 µg/mL. Further, the MIC in [9] (Lodderomyces parapsilosis) worked out at 16 µg/mL (≈ 37.2 µM); in [10] (Streptococcus pyogenes) it was 8 µg/mL (≈ 18.6 µM); in experiment [11] (Bacillus subtilis), 4 µg/mL (≈ 9.29 µM); in [12] (Candida tropicalis), 16 µg/mL (≈ 37.2 µM); in experiment [22] (Haemophilus influenzae) it was 4 µg/mL (≈ 9.29 µM); in [14] (Staphylococcus aureus) it was 4 µg/mL (≈ 9.29 µM). In addition, the MIC in experiment [16] (Streptococcus pneumoniae) was 0.125 µg/mL (≈ 0.29 µM); in [17] (Cryptococcus neoformans), 4 µg/mL (≈ 9.29 µM); in experiment [18] (Staphylococcus aureus, MRSA), 4 µg/mL (≈ 9.29 µM); in [19] (Bacillus cereus) it was 2 µg/mL (≈ 4.65 µM).

As to `CC1COc2c(N3CCN(C)CC3)c(F)cc3c(=O)c(C(=O)O)cn1c23` (stereo not drawn) [Ofloxacin, ofloxacin, reference compound], the MIC in [1] (Staphylococcus epidermidis (12228), read-out: MIC) was found to be 0.25 µg/mL (≈ 0.692 µM); in experiment [2] (Enterococcus faecium (51559), vancomycin resistant, read-out: MIC), 8 µg/mL (≈ 22.1 µM); in experiment [3] (Escherichia coli (25922), read-out: MIC) it was 0.03 µg/mL (≈ 0.083 µM); in experiment [4] (read-out: MIC), 1 µg/mL (≈ 2.77 µM); in experiment [5] (Corynebacterium), 0.125 µg/mL (≈ 0.346 µM); in [6] (Enterococcus faecalis (29212), read-out: MIC), 8 µg/mL (≈ 22.1 µM). Besides, the MIC in experiment [7] (Clostridium perfringens) is 0.25 µg/mL (≈ 0.692 µM); in [8] it was over 128 µg/mL; in [23], 1 µg/mL (≈ 2.77 µM); in [10] (Streptococcus pyogenes (49339), Table Ia: Streptococcus Group A(49339), read-out: MIC), 1 µg/mL (≈ 2.77 µM); in experiment [11] (Bacillus subtilis), 0.125 µg/mL (≈ 0.346 µM); in experiment [22] (Haemophilus influenzae (49247), read-out: MIC), 0.25 µg/mL (≈ 0.692 µM). In addition, the MIC in [14] (Staphylococcus aureus) was 0.125 µg/mL (≈ 0.346 µM); in experiment [15] (read-out: MIC), 0.5 µg/mL (≈ 1.38 µM); in [16] (Streptococcus pneumoniae (49619), read-out: MIC), 1 to 2 µg/mL (≈ 2.77 to 5.53 µM); in experiment [18] (Staphylococcus aureus (33591), methicillin resistant (MRSA), read-out: MIC), 0.25 µg/mL (≈ 0.692 µM); in experiment [19] (Bacillus cereus), 0.125 µg/mL (≈ 0.346 µM); in experiment [20] (Cutibacterium acnes, read-out: MIC), 0.25 µg/mL (≈ 0.692 µM).

On to `CN(C)CCCNC(=O)CCNC(=O)c1cc(NC(=O)c2cc(NC(=O)c3nsc(Cl)c3Cl)cn2C)cn1C` [V-cc], for which the Anti-pathogenic properties entry in experiment [24] is listed as “significant anti-pathogenic properties”. Besides, the dsDNA binding entry in experiment [25] is “good binder for dsDNA”.

Turning to `CCN(CC)CCNC(=O)CCNC(=O)c1cc(NC(=O)c2cc(NC(=O)c3nsc(NCCN(CC)CC)c3Cl)cn2C)cn1C` [V-r], the MIC in experiment [3] (Escherichia coli (25922)) was over 128 µg/mL; in [6] (Enterococcus faecalis (29212)) it was 16 µg/mL (≈ 23.1 µM); in [9] (Candida parapsilosis (10232)) it was 2 µg/mL (≈ 2.89 µM); in experiment [13], over 128 µg/mL; in [22] (Haemophilus influenzae (49247)), over 128 µg/mL; in [14] (Staphylococcus aureus (29213)), over 128 µg/mL. Further, the MIC in experiment [16] (setting [30]) is 16 µg/mL (≈ 23.1 µM); in [17] (setting [31]) it was 16 µg/mL (≈ 23.1 µM); in [19] (Bacillus cereus (11778)), over 128 µg/mL; in experiment [21] it was over 128 µg/mL.

On to `CN(C)CCCNC(=O)CCNC(=O)c1cc(NC(=O)c2cc(NC(=O)c3cc(NC(=O)c4nc(NC(=O)CCCNC(=O)c5cc(NC(=O)c6cc(NC(=O)c7nsc(Cl)c7Cl)cn6C)cn5C)cn4C)cn3C)cn2C)cn1C` [VI-c], for which, in experiment [26], the “Binding Constant, sequence ACTACT” value was 1e+08 M⁻¹. Besides, the “Binding Constant, sequence ATTACT” value in experiment [27] amounted to 1e+10 M⁻¹. Moreover, in experiment [28], the “Binding Constant, sequence AGTACT” value is 2e+08 M⁻¹. Also, the “Binding Constant, sequence AATACT” value in [29] turned out to be 1e+09 M⁻¹. Moreover, the “Sequence preference of binding” value in [25] is “bind ATTACT, and AATACT preferentially to ACTACT and AGTACT”.

Values taken from patent US20020065227A1, “Charged compounds comprising a nucleic acid binding moiety and uses therefor” (priority 2000, published 2002).
